Data taken from patent US20250057913A1, “USE OF SOMATOSTATIN AGONIST IN THE TREATMENT OF SSTR3 EXPRESSING TUMORS” (ITALFARMACO SPA, priority 2021, published 2025).

What was measured:
SSTR3 [1] = biological target: T1, SSTR3 (Homo sapiens, UniProt P32745); test: GIRK-based fluorescence membrane potential assay, HEK293-GIRK2-GFP-HA-hSST3
Description: The concentrations used are indicated. […] Data points represent mean±S.E.M.
(§4) Therefore, G protein-signaling mediated by SSTR agonists was studied using a GIRK-based fluorescence membrane potential assay both in HEK293 cells transfected with hSSTR3, and in AtT20 wild-type as well as hSSTR3-transfected cells.

NT-3 cell line spheroids = test: Cytotoxic activity on NT-3 cell line spheroids; type: cell-based, human
Description: NT-3 well-differentiated pancreatic neuroendocrine (PanNET) cell line (32) is an in-vitro model for pancreatic tumours.
Said cells were cultured in RPMI 1640 Medium GlutaMAX™ with 10% FBS, 1% Penicillin/Streptomycin, 20ng/ml EGF (AF-100-15, Peprotech), 10 ng/ml FGF (100-18B, Peprotech).
3D spheroids were generated by seeding 2000 cells/well in a 96-well ULA plate (Corning). Four replicates for each condition were seeded.
The spheroid formation required 4 days before starting the treatment.
The treatment was repeated every 3 days by replacing 50% of the medium (to avoid spheroid removal) with new medium containing 2× desired drug concentration.
Spheroid morphology was monitored every day during the treatment and pictures were taken on day 0, 4, 7, 11, 14, 18. Day 0 corresponds to the first day of treatment. Pictures were taken from the same well every time point.

SSTR2 [2] = biological target: T2, SSTR2 (Homo sapiens, UniProt P30874); test: SSTR2 phosphorylation in HEK293 transfected cells (phosphosite-specific antibodies); type: cell-based; design: expressed in transfected cells; details: 10 or 1 μM, 10 min at 37° C.
T2 sequence (P30874 whole entry): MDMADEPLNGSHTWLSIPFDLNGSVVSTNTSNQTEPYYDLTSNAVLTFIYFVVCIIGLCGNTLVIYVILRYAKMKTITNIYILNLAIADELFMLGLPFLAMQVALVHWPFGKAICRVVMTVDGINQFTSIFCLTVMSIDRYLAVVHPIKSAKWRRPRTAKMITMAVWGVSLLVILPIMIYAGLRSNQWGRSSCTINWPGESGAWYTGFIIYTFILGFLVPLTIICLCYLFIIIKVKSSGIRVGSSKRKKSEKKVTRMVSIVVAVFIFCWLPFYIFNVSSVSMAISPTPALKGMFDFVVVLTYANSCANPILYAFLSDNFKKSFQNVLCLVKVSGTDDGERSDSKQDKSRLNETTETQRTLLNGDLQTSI
Description: (A) Schematic representation of the human SSTR2 receptor indicating all potential phosphate acceptor sites within the carboxyl-terminal tail. Epitopes of the phosphosite-specific antibodies are marked (-P). […] The levels of phosphorylated SSTR2 receptor were then determined using the phosphosite-specific anti-pS341/pS343, pT353/T354, pT356/T359 antibodies. […] Blots shown are representative of three independent experiments. The positions of molecular mass markers are indicated on the left (in kDa).

opioid receptors = test: single dose binding assays on opioid receptors; details: single dose 10^−5 M
SSTR2-tGFP = SSTR2-tGFP (Homo sapiens, UniProt P30874); test: Internalization of SSTR2 in U2OS transfected cells; type: cell-based; design: expressed in transfected cells; host or cells: U2OS
SSTR2-tGFP, sequence (P30874 whole entry): as above
Text: (§1) HEK293 cells transfected with human SSTRs, and U20S cells transfected with human GFP-tagged receptors (SSTR2-tGFP, SSTR3-tGFP, SSTR5-tGFP).

SSTR5-tGFP = SSTR5-tGFP (Homo sapiens, UniProt P35346); test: Internalization of SSTR5 in U2OS transfected cells; type: cell-based; design: expressed in transfected cells; host or cells: U2OS
SSTR5-tGFP, sequence (P35346 whole entry): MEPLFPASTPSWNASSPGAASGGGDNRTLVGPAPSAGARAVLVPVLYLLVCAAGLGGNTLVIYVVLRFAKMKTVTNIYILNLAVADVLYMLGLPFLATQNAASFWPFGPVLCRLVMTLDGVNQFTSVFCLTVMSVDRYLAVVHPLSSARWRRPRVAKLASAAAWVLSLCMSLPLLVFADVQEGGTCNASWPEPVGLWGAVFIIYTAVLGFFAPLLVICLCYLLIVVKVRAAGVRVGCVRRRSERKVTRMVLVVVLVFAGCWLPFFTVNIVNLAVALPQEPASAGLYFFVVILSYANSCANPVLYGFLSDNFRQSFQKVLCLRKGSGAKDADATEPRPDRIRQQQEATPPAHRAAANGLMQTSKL
Text: as §1

[3] = system: pentobarbital-induced GH release; test: pentobarbital-induced GH release in rats; type: in vivo, rat
SSTR2 [4] = biological target: T2, SSTR2; test: cell-based; design: expressed in transfected cells; host or cells: HEK293 co-expressing GIRK2-GFP
Description: as §4

SSTR3 [5] = biological target: T1, SSTR3; test: SSTR3 phosphorylation in HEK293 transfected cells (phosphosite-specific antibodies); type: cell-based; design: expressed in transfected cells; details: 10^−12 to 10^−5 M, 10 min at 37° C.
Description: The levels of phosphorylated SST3 receptor were then determined using the phosphosite-specific anti-pS337/pT341 or anti-pT348.
(§2) Finally, the SSTR5 pT333 phosphosite was only partially affected by all tested compounds, with Pasireotide showing the most pronounced effect (FIG. 9B, C).

SSTR5 [6] = biological target: T3, SSTR5 (Homo sapiens, UniProt P35346)
T3 sequence (P35346 whole entry): as above
Description: as §4

SSTR5 [7] = biological target: T3, SSTR5; test: SSTR binding affinity (Table 1)
Text: (§3) IC50 values are from one representative experiment. Confidence interval from 3 independent experiments (Table 1).

SSTR1 = SSTR1 (Homo sapiens, UniProt P30872); test: SSTR binding affinity (Table 1)
SSTR1, sequence (P30872 whole entry): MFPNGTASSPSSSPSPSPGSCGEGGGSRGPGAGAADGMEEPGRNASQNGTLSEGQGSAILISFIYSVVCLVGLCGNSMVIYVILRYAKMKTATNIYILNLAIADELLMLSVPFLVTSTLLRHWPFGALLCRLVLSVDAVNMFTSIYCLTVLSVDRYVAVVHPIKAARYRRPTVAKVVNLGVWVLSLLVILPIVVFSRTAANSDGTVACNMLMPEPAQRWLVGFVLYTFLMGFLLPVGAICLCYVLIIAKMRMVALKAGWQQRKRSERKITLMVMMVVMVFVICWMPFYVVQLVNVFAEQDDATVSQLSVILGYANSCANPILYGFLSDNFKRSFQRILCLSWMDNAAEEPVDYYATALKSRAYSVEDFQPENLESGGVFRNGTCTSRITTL
Text: as §3

SSTR3 [8] = biological target: T1, SSTR3; test: SSTR binding affinity (Table 1)
Text: as §3

SSTR5 [9] = biological target: T3, SSTR5; test: SSTR5 phosphorylation in HEK293 transfected cells (anti-pT333); type: cell-based; design: expressed in transfected cells; details: 10 min at 37° C.
Text: FIG. 9—Agonist-selective SSTR5 phosphorylation in HEK293 transfected cells. (A) Schematic representation of the human SSTR5 receptor indicating all potential phosphate acceptor site within the carboxyl-terminal tail. Epitope of the phosphosite-specific antibodies are marked (-P) . . . […] (C) Blots were subsequently stripped and reprobed with anti-HA antibody to confirm equal loading of the gels. Blots shown are representative of three independent experiments. The positions of molecular mass markers are indicated on the left (in kDa).
as §2

SSTR2 [10] = biological target: T2, SSTR2; test: SSTR2 internalization in transfected HEK293 cells; type: cell-based; design: expressed in transfected cells
Text: as §1

IGF1 levels = IGF1 levels in rats; type: in vivo, rat
SSTR2 [11] = biological target: T2, SSTR2; test: SSTR binding affinity (Table 1); design: expressed in transfected cells; host or cells: HEK293 co-expressing GIRK2-GFP
Text: as §3

T1 sequence (P32745 whole entry): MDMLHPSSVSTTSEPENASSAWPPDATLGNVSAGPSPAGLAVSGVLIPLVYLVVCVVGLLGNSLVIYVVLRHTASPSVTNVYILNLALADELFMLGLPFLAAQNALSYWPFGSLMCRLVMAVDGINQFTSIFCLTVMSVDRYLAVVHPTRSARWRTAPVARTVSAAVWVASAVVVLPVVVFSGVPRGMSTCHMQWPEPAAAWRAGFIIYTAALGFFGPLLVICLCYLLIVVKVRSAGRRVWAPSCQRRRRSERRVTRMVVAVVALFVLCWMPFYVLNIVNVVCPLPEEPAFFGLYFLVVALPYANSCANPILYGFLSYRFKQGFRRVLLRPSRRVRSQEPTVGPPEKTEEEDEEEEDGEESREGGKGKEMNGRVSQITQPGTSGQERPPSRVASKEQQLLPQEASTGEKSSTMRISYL

COc1cc2cccc(OC)c2cc1C[C@H]1NC(=O)[C@H](Cc2ccc(O)cc2)NC(=O)[C@@H]2C[C@@H](OC(=O)NCCN)CN2C(=O)[C@H](Cc2ccccc2)NC(=O)[C@H](Cc2ccc(OCc3ccccc3)cc2)NC(=O)[C@H](CCCCN)NC1=O [ITF2984, (3S,6R,9S,12S,15S,19R,20aS)-9-(4-aminobutyl)-15-benzyl-12-(4-(benzyloxy)benzyl)-6-((3,8-dimethoxynaphthalen-2-yl)methyl)-3-(4-hydroxybenzyl)-1,4,7,10,13,16-hexaoxoicosahydropyrrolo[1,2-a][1,4,7,10,13,16]hexaazacyclooctadecin-19-yl (2-aminoethyl)carbamate]
EC50 (SSTR3 [1]): 10.7 ± 1.7 nM
G-protein signaling potency at SSTR3 versus Octreotide or Pasireotide (SSTR3 [1]; more potent than Octreotide or Pasireotide): about 5 times
spheroid morphology at the highest concentration (NT-3 cell line spheroids; 2.56 μM, 18 days): completed destroyed
concentration reducing the spheroid volume (NT-3 cell line spheroids; starting from day 7): ≥ 640 nM
phosphorylation of SSTR2 (pS341/pS343, pT353/T354, pT356/T359) (SSTR2 [2]): selective phosphorylation of S341/S343
replacement of agonists (opioid receptors): fully replace agonists
Mean of internalized fluorescence, SSTR2 (SSTR2-tGFP; 1 μM): 37.3 AU
Mean of internalized fluorescence, SSTR2 (SSTR2-tGFP; 10 μM): 35.9 AU
Mean of internalized fluorescence, SSTR5 (SSTR5-tGFP; 1 μM): 34.6 AU
Mean of internalized fluorescence, SSTR5 (SSTR5-tGFP; 10 μM): 42.0 AU
pentobarbital-induced GH release [3]: inhibited pentobarbital-induced GH release
EC50 (SSTR2 [4]): 312 ± 29.3 nM
phosphorylation of SSTR3 (pS337/pT341, pT348) (SSTR3 [5]): full phosphorylation
EC50 (SSTR5 [6]): 95.1 ± 15.2 nM
IC50 (SSTR5 [7]): nanomolar range
affinity compared to octreotide (SSTR5 [7]; compared to octreotide): higher affinity
affinity compared to octreotide (SSTR1): higher affinity
IC50 (SSTR3 [8]): nanomolar range
affinity compared to octreotide (SSTR3 [8]; compared to octreotide): higher affinity
phosphorylation of SSTR5 (pT333) (SSTR5 [9]): partial phosphorylation
internalization of SSTR2 (SSTR2 [10]): only a partial internalization
IGF1 levels (IGF1 levels): decreased IGF1 levels
IC50 (SSTR2 [11]): nanomolar range
affinity compared to octreotide (SSTR2 [11]; compared to octreotide): lower affinity
